Assay results taken from patent US20150105252A1, “SUBSTITUTED PYRAZOLES AS HERBICIDES” (E I DU PONT DE NEMOURS AND COMPANY, priority 2013, published 2015).

Legend:
Settings in all cases: scale 0 to 100
windgrass [1] = experiment: Test D preemergence; assay type: in vivo, Apera spica-venti
Method in brief: (§1)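 Visual 0–100 control ratings at 14–21 days in a controlled growth environment. Application preemergence onto silt loam or postemergence onto 2–18 cm seedlings, using a non-phytotoxic solvent formulation with surfactant.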

kochia = experiment: Test D preemergence; assay type: in vivo, Kochia scoparia
Method in brief: as §1

deadnettle = experiment: Test D postemergence; assay type: in vivo, Lamium amplexicaule
Text: (§2) Seeds of plant species selected from bluegrass (annual bluegrass, Poa annua), blackgrass (Alopecurus myosuroides), canarygrass (littleseed canarygrass, Phalaris minor), chickweed (common chickweed, Stellaria media), galium (catchweed bedstraw, Galium aparine), bromegrass, downy (downy bromegrass, Bromus tectorum), field poppy (Papaver rhoeas), field violet (Viola arvensis), foxtail, green (green foxtail, Setaria viridis), deadnettle (henbit deadnettle, Lamium amplexicaule), ryegrass, Italian (Italian ryegrass, Lolium multiflorum), kochia (Kochia scoparia), lambsquarters (Chenopodium album), oilseed rape (Brassica napus), pigweed (redroot pigweed, Amaranthus retroflexus), chamomile (scentless chamomile, Matricaria inodora), speedwell (bird's-eye speedwell, Veronica persica), barley, spring (spring barley, Hordeum vulgare), wheat, spring (spring wheat, Triticum aestivum), buckwheat, wild (wild buckwheat, Polygonum convolvulus), mustard, wild (wild mustard, Sinapis arvensis), oat, wild (wild oat, Avena fatua), radish, wild (wild radish, Raphanus raphanistrum), windgrass (Apera spica-venti), Russian thistle (Salsola kali), barley, winter (winter barley, Hordeum vulgare), and wheat, winter (winter wheat, Triticum aestivum) were planted into a silt loam soil and treated preemergence with test chemicals formulated in a non-phytotoxic solvent mixture which included a surfactant.
(§3) At the same time, these species were planted in pots containing Redi-Earth® planting medium (Scotts Company, 14111 Scottslawn Road, Marysville, Ohio 43041) comprising spaghnum peat moss, vermiculite, wetting agent and starter nutrients and treated with postemergence applications of the test chemicals formulated in the same manner. Plants ranged in height from 2 to 18 cm (1- to 4-leaf stage). Treated plants and controls were maintained in a controlled growth environment for 14 to 21 days after which time all species were compared to controls and visually evaluated. Plant response ratings, summarized in Table D, are based on a scale of 0 to 100 where 0 is no effect and 100 is complete control. A dash (-) response means no test result.

bromegrass, downy = experiment: Test D postemergence; assay type: in vivo, Bromus tectorum
Text: as §2, §3

field violet = experiment: Test D postemergence; assay type: in vivo, Viola arvensis
Text: as §2, §3

buckwheat, wild = experiment: Test D preemergence; assay type: in vivo, Polygonum convolvulus
Text: as §2, §3

windgrass [2] = experiment: Test D postemergence; assay type: in vivo, Apera spica-venti
Method in brief: as §1

chamomile = experiment: Test D postemergence; assay type: in vivo, Matricaria inodora
Method in brief: as §1

bluegrass = experiment: Test D postemergence; assay type: in vivo, Poa annua
Method in brief: as §1

blackgrass = experiment: Test D postemergence; assay type: in vivo, Alopecurus myosuroides
Text: as §2, §3

CCCc1cc(C(=O)NCC(F)(F)F)nn1Cc1cc(C(F)(F)F)nn1C [Compound 138]
Plant response rating, Windgrass (windgrass [1]; 62 g ai/ha): 45
Plant response rating, Windgrass (windgrass [1]; 125 g ai/ha): 100
Plant response rating, Windgrass (windgrass [1]; 250 g ai/ha): 100
Plant response rating, Kochia (kochia; 62 g ai/ha): 95
Plant response rating, Kochia (kochia; 125 g ai/ha): 100
Plant response rating, Kochia (kochia; 250 g ai/ha): 100
Deadnettle plant response rating (deadnettle; Postemergence, 31 g ai/ha): 65
Deadnettle plant response rating (deadnettle; Postemergence, 125 g ai/ha): 75
Deadnettle plant response rating (deadnettle; Postemergence, 250 g ai/ha): 85
Deadnettle plant response rating (deadnettle; postemergence, 62 g ai/ha): 65
Bromegrass, Downy plant response rating (bromegrass, downy; Postemergence, 31 g ai/ha): 10
Bromegrass, Downy plant response rating (bromegrass, downy; Postemergence, 125 g ai/ha): 30
Bromegrass, Downy plant response rating (bromegrass, downy; Postemergence, 250 g ai/ha): 20
Bromegrass, Downy plant response rating (bromegrass, downy; postemergence, 62 g ai/ha): 10
Field Violet plant response rating (field violet; Postemergence, 31 g ai/ha): 80
Field Violet plant response rating (field violet; Postemergence, 125 g ai/ha): 75
Field Violet plant response rating (field violet; Postemergence, 250 g ai/ha): 95
Field Violet plant response rating (field violet; postemergence, 62 g ai/ha): 80
Plant response rating, Buckwheat, Wild (buckwheat, wild; 31 g ai/ha): 45
Plant response rating, Buckwheat, Wild (buckwheat, wild; 62 g ai/ha): 50
Plant response rating, Buckwheat, Wild (buckwheat, wild; 125 g ai/ha): 70
Plant response rating, Buckwheat, Wild (buckwheat, wild; 250 g ai/ha): 100
Windgrass plant response rating (windgrass [2]; Postemergence, 31 g ai/ha): 20
Windgrass plant response rating (windgrass [2]; Postemergence, 125 g ai/ha): 35
Windgrass plant response rating (windgrass [2]; Postemergence, 250 g ai/ha): 60
Windgrass plant response rating (windgrass [2]; postemergence, 62 g ai/ha): 20
Chamomile plant response rating (chamomile; Postemergence, 31 g ai/ha): 50
Chamomile plant response rating (chamomile; Postemergence, 125 g ai/ha): 60
Chamomile plant response rating (chamomile; Postemergence, 250 g ai/ha): 65
Chamomile plant response rating (chamomile; postemergence, 62 g ai/ha): 50
Bluegrass plant response rating (bluegrass; Postemergence, 31 g ai/ha): 15
Bluegrass plant response rating (bluegrass; Postemergence, 125 g ai/ha): 30
Bluegrass plant response rating (bluegrass; Postemergence, 250 g ai/ha): 60
Bluegrass plant response rating (bluegrass; postemergence, 62 g ai/ha): 15
Blackgrass plant response rating (blackgrass; Postemergence, 31 g ai/ha): 25
Blackgrass plant response rating (blackgrass; Postemergence, 125 g ai/ha): 40
Blackgrass plant response rating (blackgrass; Postemergence, 250 g ai/ha): 75
Blackgrass plant response rating (blackgrass; postemergence, 62 g ai/ha): 25

CCOc1cc(C(=O)NC2CC2)nn1Cc1ccnc(C(F)(F)F)c1 [Compound 189]
Plant response rating, Windgrass (windgrass [1]; 62 g ai/ha): 65
Plant response rating, Windgrass (windgrass [1]; 125 g ai/ha): 100
Plant response rating, Windgrass (windgrass [1]; 250 g ai/ha): 100
Plant response rating, Kochia (kochia; 62 g ai/ha): 100
Plant response rating, Kochia (kochia; 125 g ai/ha): 100
Plant response rating, Kochia (kochia; 250 g ai/ha): 100
Deadnettle plant response rating (deadnettle; Postemergence, 31 g ai/ha): 45
Deadnettle plant response rating (deadnettle; Postemergence, 125 g ai/ha): 55
Deadnettle plant response rating (deadnettle; Postemergence, 250 g ai/ha): 75
Deadnettle plant response rating (deadnettle; postemergence, 62 g ai/ha): 45
Bromegrass, Downy plant response rating (bromegrass, downy; Postemergence, 31 g ai/ha): 15
Bromegrass, Downy plant response rating (bromegrass, downy; Postemergence, 125 g ai/ha): 15
Bromegrass, Downy plant response rating (bromegrass, downy; Postemergence, 250 g ai/ha): 20
Bromegrass, Downy plant response rating (bromegrass, downy; postemergence, 62 g ai/ha): 15
Field Violet plant response rating (field violet; Postemergence, 31 g ai/ha): 60
Field Violet plant response rating (field violet; Postemergence, 125 g ai/ha): 100
Field Violet plant response rating (field violet; Postemergence, 250 g ai/ha): 100
Field Violet plant response rating (field violet; postemergence, 62 g ai/ha): 60
Plant response rating, Buckwheat, Wild (buckwheat, wild; 31 g ai/ha): 100
Plant response rating, Buckwheat, Wild (buckwheat, wild; 62 g ai/ha): 100
Plant response rating, Buckwheat, Wild (buckwheat, wild; 125 g ai/ha): 100
Plant response rating, Buckwheat, Wild (buckwheat, wild; 250 g ai/ha): 100
Windgrass plant response rating (windgrass [2]; Postemergence, 31 g ai/ha): 15
Windgrass plant response rating (windgrass [2]; Postemergence, 125 g ai/ha): 20
Windgrass plant response rating (windgrass [2]; Postemergence, 250 g ai/ha): 35
Windgrass plant response rating (windgrass [2]; postemergence, 62 g ai/ha): 15
Chamomile plant response rating (chamomile; Postemergence, 31 g ai/ha): 55
Chamomile plant response rating (chamomile; Postemergence, 125 g ai/ha): 60
Chamomile plant response rating (chamomile; Postemergence, 250 g ai/ha): 65
Chamomile plant response rating (chamomile; postemergence, 62 g ai/ha): 55
Bluegrass plant response rating (bluegrass; Postemergence, 31 g ai/ha): 15
Bluegrass plant response rating (bluegrass; Postemergence, 125 g ai/ha): 15
Bluegrass plant response rating (bluegrass; Postemergence, 250 g ai/ha): 30
Bluegrass plant response rating (bluegrass; postemergence, 62 g ai/ha): 15
Blackgrass plant response rating (blackgrass; Postemergence, 31 g ai/ha): 10
Blackgrass plant response rating (blackgrass; Postemergence, 125 g ai/ha): 15
Blackgrass plant response rating (blackgrass; Postemergence, 250 g ai/ha): 20
Blackgrass plant response rating (blackgrass; postemergence, 62 g ai/ha): 10
